Read-outs that look alike come from different tables or passages of the source. Where only a bound is given, the exact number is not on record here.

The subject of one data set is NIH/3T3 cells. In words: Cytotoxicity assay (CCK-8 cell viability). The data set is classed as cell-based, mouse. The note with it: for EC50: read-out: EC50 NIH/3T3. Here is the method: Cultures of human foreskin fibroblast (HFF; HFF-1 ATCC® SCRC-1041™), Madin–Darby bovine kidney (MDBK; ECACC) and mouse embryonic fibroblast (NIH/3T3; ATCC® CRL-1658™) cells were retrieved from −80 °C stock and cultured continuously at 37 °C under atmosphere 5% CO2 in our laboratory. The NIH/3T3 and HFFs cells were maintained in Dulbecco Modified Eagle’s Medium (DMEM; Gibco, Grand Island, NY, USA), while MDBK cell line grown in Minimum Essential Medium Eagle (MEM; Gibco). Each medium was treated with 0.5% penicillin/streptomycin (Gibco), 10% inactivated fetal bovine serum and 2 mM glutamine. Every 72 to 96 h, the medium was replaced, and once 80% confluence was reached, the cell collection was performed by sub-culture protocol. To confirm the absence of mycoplasma contamination, 4,6-diamidino-2-phenylindole dihydrochloride stain (Sigma-Aldrich) was used.
The cell viability test was conducted in a 96-well plate as described elsewhere. Briefly, an aliquot of (100 µL) cells was implanted at a concentration of 5 × 10^4 cells/mL in DMEM or MEM with fetal bovine serum and incubated overnight under atmosphere 5% CO2 at 37 °C for attachment. Using two-fold dilutions, aliquots (10 µL) of drugs were added in triplicate per well to attain final concentrations of 50 to 1000 µM and further incubated for 24 h. The positive control wells containing cells mixed with the medium in 0.4% DMSO, whereas the negative control wells containing culture medium only. After a 24-h incubation, Cell Counting Kits-8 (CCK-8, 10 µL) was added to each well and then plate incubation was conducted for an additional 3 h and a microplate reader was used to assess the absorbance at 450 nm.

A further data set relates to equine RBCs (T. equi). Description: Impact of ATR pretreatment of equine RBCs on later parasite proliferation. The format is cell-based. The note with it: 400 µM ATR for 3 and 6 h, then T. equi subculture. Here is the method: (§1) Prior to parasite subculture, a concentration of 400 µM of ATR was mixed with fresh bovine and equine RBCs and incubated at a humidified incubator for 3 and 6 h. Afterward, the pretreated-RBCs were mixed with B. divergens and T. equi infected RBCs (iRBCs) after washing thrice with PBS to achieve 1% parasitemia. Thereafter, using a 24-well plate, an aliquot of iRBCs (100 μL) was mixed with culture media (900 μL); the control RBCs were left untreated. To monitor the parasitemia and any side effects due to the pretreatment, Giemsa-stained smears were prepared every 24 h for four days.

Data set [1] has as its system LLC/MK2 monkey kidney epithelial cells. Also noted: method as in PMID 21487780. The conditions noted are these: cited from earlier work.
Another data set relates to Plasmodium species. Set-up: method as in earlier work. The conditions noted are these: ATR combined with quinine; cited from earlier work.
The subject of data set [2] is bovine RBCs (B. divergens). In words: Impact of ATR pretreatment of bovine RBCs on later parasite proliferation. The format is cell-based. The conditions noted are these: 400 µM ATR for 3 and 6 h, then B. divergens subculture. The procedure:
as §1

The next data set relates to hepatitis C virus (HCV). Also noted: method as in PMID 25793970. The conditions noted are these: antiviral activity against hepatitis C virus (HCV); cited from earlier work.
For another data set, the system named is B. microti. The conditions noted are these: for peak parasitemia level: peak on day 10; for peak parasitemia level / first day on which parasitemia was not detected by microscopy: B. microti-infected BALB/c mice; for first day on which parasitemia was not detected by microscopy: DA 25, AV 20, ATR 25, ATR 12.5+DA 12.5, ATR 12.5+AV 10 mg/kg BW.
For the next data set, the system named is B. divergens. Description: Parasite viability test in vitro (regrowth after drug withdrawal, microscopy). The note with it: 4 days treatment, then drug-free culture. Set-up: key: a positive (+) indicates parasites regrowth; a negative (–) shows the parasites total clearance after drug pressure withdrawal using microscopy assay. The format is cell-based. The procedure:
(§2) The viability studies of ATR-treated parasites were monitored via microscopy as reported elsewhere. In a 96-well microtiter plate, an aliquot of 1% parasitemia (10 µL) of iRBCs was cultivated with 90 µL of respective media containing various concentrations of ATR and DA for 4 successive days with changing media daily. […] On the fifth day, a mixture of iRBCs (3 µL) from each well and fresh equine or bovine RBCs (7 µL) was transferred to another plate, cultured in a medium free from drug and then left for an additional six days. The total parasite clearance was recorded as negative, while the relapse of parasites was recorded as positive.

The next data set deals with T. equi. The description is as above. The conditions noted are these: 4 days treatment, then drug-free culture. Set-up: key: a positive (+) indicates parasites regrowth; a negative (–) shows the parasites total clearance after drug pressure withdrawal using microscopy assay. The format is cell-based. Here is the method: as §2
Another data set has as its system B. caballi. Described as above. Set-up: key: a positive (+) indicates parasites regrowth; a negative (–) shows the parasites total clearance after drug pressure withdrawal using microscopy assay. The note with it: 4 days treatment, then drug-free culture. The format is cell-based. The procedure:
as §2

The test system of the next data set is B. bigemina. Described as above. The data set is classed as cell-based. Set-up: key: a positive (+) indicates parasites regrowth; a negative (–) shows the parasites total clearance after drug pressure withdrawal using microscopy assay. The conditions noted are these: 4 days treatment, then drug-free culture. The procedure:
as §2

Another data set concerns B. bovis. Described as above. The format is cell-based. Set-up: key: a positive (+) indicates parasites regrowth; a negative (–) shows the parasites total clearance after drug pressure withdrawal using microscopy assay. The note with it: 4 days treatment, then drug-free culture. The procedure:
as §2

The mark [3] stands for this setting: EC50 NIH/3T3 / IC50 B. bigemina.
[4] abbreviates: EC50 NIH/3T3 / IC50 B. divergens.
The mark [5] stands for this setting: ATR 25 mg/kg i.p., days 4-8 p.i.

In general, IC50 refers to the concentration at which inhibition is half-maximal. For `COC(=O)c1c(C)cc(OC(=O)c2c(C)cc(O)c(C=O)c2O)c(C)c1O` [ATR, Atranorin], the “Selective Index NIH/3T3” value in the data set on NIH/3T3 cells (setting [3]) was found to be 9.9; with NIH/3T3 cells (EC50 NIH/3T3 / IC50 B. bovis), 6.5; in the data set on NIH/3T3 cells (EC50 NIH/3T3 / IC50 B. caballi) it was 13.7; with NIH/3T3 cells (setting [4]), 14.0; in the data set on NIH/3T3 cells (EC50 NIH/3T3 / IC50 T. equi) it was 9. Besides, the EC50 in the data set with NIH/3T3 cells (Mus musculus, NIH3T3, 24 h) was 638 ± 12 µM. For the same compound, the “parasite proliferation in ATR-pretreated RBCs versus untreated RBCs” value (in the data set on equine RBCs (T. equi); in data set [2]) was “did not show a significant difference” throughout. The cytotoxic action entry in [1] is “mild cytotoxic action”. In addition, in the data set on Plasmodium species, the “combined treatment efficacy with quinine” value is “slight antagonistic efficacy”. Further, the IC50 in the data set on hepatitis C virus (HCV) is 22.3 ± 8 µM. Further, the “inhibition of B. microti multiplication in mice” value in the data set with B. microti (setting [5]) was 68.17%. In the data set with B. microti (setting [5]), this compound came in with a peak parasitemia level of 19.92%. In addition, in the data set on B. microti (days 4-8 p.i.), the “first day on which parasitemia was not detected by microscopy” value is on record as 26 day p.i. Further, the “toxic signs in mice due to treatment” value in the data set with B. microti (mouse, in vivo) is “no obvious toxic signs or promoted anemia”. Also, the Viability entry with B. divergens (A1 = 0.25× IC50, 11.3 µM) was “+”; with B. divergens (A2 = 0.5× IC50, 22.6 µM) it was “+”; in the data set on B. divergens (A3 = 1× IC50, 45.2 µM), “+”; in the data set on B. divergens (A4 = 2× IC50, 90.4 µM) it was “+”; with B. divergens (A5 = 4× IC50, 180.8 µM) it was “cleared and did not revive and –”; with B. divergens (A6 = 6× IC50, 271.2 µM), “–”. Moreover, the Viability result with T. equi (A1 = 0.25× IC50, 17.8 µM) is “+”; in the data set with T. equi (A2 = 0.5× IC50, 35.6 µM), “+”; in the data set on T. equi (A3 = 1× IC50, 71.3 µM) it was “+”; in the data set with T. equi (A4 = 2× IC50, 142.6 µM), “+”; with T. equi (A5 = 4× IC50, 285.2 µM), “+”; in the data set with T. equi (A6 = 6× IC50, 427.8 µM), “suppressed and –”. For the same compound, the Viability entry is “+” in the data set on B. caballi (A1 = 0.25× IC50, 11.65 µM); “+” with B. caballi (A2 = 0.5× IC50, 23.3 µM); “+” in the data set with B. caballi (A3 = 1× IC50, 46.6 µM); “completely suppressed and did not revive and –” in the data set on B. caballi (A4 = 2× IC50, 93.2 µM); “–” with B. caballi (A5 = 4× IC50, 186.4 µM); “–” in the data set on B. caballi (A6 = 6× IC50, 279.6 µM). The Viability entry is “+” in the data set with B. bigemina (A1 = 0.25× IC50, 16.1 µM); “+” in the data set with B. bigemina (A2 = 0.5× IC50, 32.25 µM); “+” with B. bigemina (A3 = 1× IC50, 64.5 µM); “completely suppressed and did not revive and –” with B. bigemina (A4 = 2× IC50, 129 µM); “–” in the data set with B. bigemina (A5 = 4× IC50, 258 µM); “–” in the data set with B. bigemina (A6 = 6× IC50, 387 µM). Moreover, the Viability entry in the data set on B. bovis (A1 = 0.25× IC50, 24.6 µM) is “+”; in the data set with B. bovis (A2 = 0.5× IC50, 49.2 µM), “+”; in the data set on B. bovis (A3 = 1× IC50, 98.4 µM), “+”; in the data set on B. bovis (A4 = 2× IC50, 196.8 µM), “completely suppressed and did not revive and –”; with B. bovis (A5 = 4× IC50, 393.6 µM), “–”; in the data set on B. bovis (A6 = 6× IC50, 590.4 µM), “–”.

`O=C1C(O)=C([C@H]2CC[C@H](c3ccc(Cl)cc3)CC2)C(=O)c2ccccc21` [AV, atovaquone]: the “Selective Index NIH/3T3” value with NIH/3T3 cells (setting [3]) is reported as “˃142.7”; in the data set on NIH/3T3 cells (EC50 NIH/3T3 / IC50 B. bovis) it was “˃2564”; in the data set with NIH/3T3 cells (EC50 NIH/3T3 / IC50 B. caballi), “˃980.4”; with NIH/3T3 cells (setting [4]), “˃2631”; with NIH/3T3 cells (EC50 NIH/3T3 / IC50 T. equi), “˃1052”. The EC50 with NIH/3T3 cells (Mus musculus, NIH3T3, NIH/3T3 cells, 24 h, CCK-8) is above 100 µM. This compound also had a peak parasitemia level in the data set with B. microti (AV at 20 mg/kg, days 4-8 p.i.) of 10.99%. In addition, the “first day on which parasitemia was not detected by microscopy” value in the data set on B. microti (days 4-8 p.i.) is 18 day p.i.

For the compound `CC(=O)NCC(=O)O.CC(=O)NCC(=O)O.N=C(N)c1ccc(N=NNc2ccc(C(=N)N)cc2)cc1` [DA, diminazene aceturate], the “Selective Index NIH/3T3” value in the data set on NIH/3T3 cells (setting [3]) was “˃147.1”; in the data set on NIH/3T3 cells (EC50 NIH/3T3 / IC50 B. bovis) it was “˃285.7”; with NIH/3T3 cells (EC50 NIH/3T3 / IC50 B. caballi) it was “˃5000”; in the data set with NIH/3T3 cells (setting [4]), “˃232.5”; in the data set with NIH/3T3 cells (EC50 NIH/3T3 / IC50 T. equi) it was “˃140.8”. Besides, in the data set with NIH/3T3 cells (NIH/3T3 cells, 24 h, CCK-8), the EC50 is above 100 µM. In addition, in the data set on B. microti (days 4-8 p.i.), the “first day on which parasitemia was not detected by microscopy” value was determined as 16 day p.i. Besides, the peak parasitemia level in the data set on B. microti (DA at 25 mg/kg, days 4-8 p.i.) is 7.94%.

The values are drawn from article PMC7167990, “Therapeutic Effects of Atranorin towards the Proliferation of Babesia and Theileria Parasites” (Pathogens, 2020).
